Assay results taken from ChEMBL document CHEMBL3259791, “Discovery of (E)-3-((styrylsulfonyl)methyl)pyridine and (E)-2-((styrylsulfonyl)methyl)pyridine derivatives as anticancer agents: synthesis, structure-activity relationships, and biological activities” (J Med Chem, 2014).
One block for each compound: values may come before it.

Tests used:
Format in all cases: functional
A2780 [1] = test: Cell cycle arrest in human A2780 cells assessed as accumulation at S phase at 0.06 uM after 24 hrs by flow cytometric analysis (reference value: 22.72%)
WI-38 [2] = test: Cell cycle arrest in human WI38 cells assessed as accumulation at G2/M phase at 0.06 uM after 24 hrs by flow cytometric analysis (reference value: 17.36%)
WI-38 [3] = test: Cell cycle arrest in human WI38 cells assessed as accumulation at G1 phase at 1 uM after 24 hrs by flow cytometric analysis (reference value: 55.89%)
MCF7 [4] = test: Antiproliferative activity against ER positive human MCF7 cells assessed as cell growth inhibition after 72 hrs by MTT assay; settings: MCF7, 72 h
HCT-116 = test: Antiproliferative activity against human HCT116 cells assessed as cell growth inhibition after 72 hrs by MTT assay; settings: HCT-116, 72 h
LNCaP = test: Antiproliferative activity against AR positive human LNCAP cells assessed as cell growth inhibition after 72 hrs by MTT assay
A2780 [5] = test: Cell cycle arrest in human A2780 cells assessed as accumulation at G1 phase at 0.06 uM after 24 hrs by flow cytometric analysis (reference value: 54.89%)
A2780 [6] = test: Antiproliferative activity against human A2780 cells assessed as cell growth inhibition after 72 hrs by MTT assay; settings: A2780, 72 h
DU-145 = test: Antiproliferative activity against AR negative human DU145 cells assessed as cell growth inhibition after 72 hrs by MTT assay; settings: DU-145, 72 h
WI-38 [7] = test: Induction of apoptosis in human WI38 cells assessed as early-stage apoptotic cells at 0.06 uM after 48 hrs by annexin V/PI double staining (reference value: 2.16%)
A2780 [8] = test: Induction of apoptosis in human A2780 cells assessed as viable cells at 1 uM after 48 hrs by annexin V/PI double staining (reference value: 82.12%); settings: A2780, 48 h, read-out: Activity
A2780 [9] = test: Induction of apoptosis in human A2780 cells assessed as early-stage apoptotic cells at […] after 48 hrs by annexin V/PI double staining (reference value: 7.13%)
WI-38 [10] = test: Induction of apoptosis in human WI38 cells assessed as late-stage apoptotic cells at 0.06 uM after 48 hrs by annexin V/PI double staining (reference value: 16.26%)
A2780 [11] = test: Cell cycle arrest in human A2780 cells assessed as accumulation at S phase at 1 uM after 24 hrs by flow cytometric analysis (reference value: 22.72%)
A2780 [12] = test: Induction of apoptosis in human A2780 cells assessed as early-stage apoptotic cells at 1 uM after 48 hrs by annexin V/PI double staining (reference value: 7.13%)
A2780 [13] = test: Induction of apoptosis in human A2780 cells assessed as early-stage apoptotic cells at 0.06 uM after 48 hrs by annexin V/PI double staining (reference value: 7.13%)
WI-38 [14] = test: Induction of apoptosis in human WI38 cells assessed as viable cells at […] after 48 hrs by annexin V/PI double staining (reference value: 80.59%); settings: WI-38, 48 h, read-out: Activity
MCF7 [15] = test: Antiproliferative activity against human MCF7 cells assessed as cell growth inhibition after 72 hrs by MTT assay; settings: MCF7, 72 h
WI-38 [16] = test: Cell cycle arrest in human WI38 cells assessed as accumulation at G1 phase at […] after 24 hrs by flow cytometric analysis (reference value: 55.89%)
A2780 [17] = test: Cell cycle arrest in human A2780 cells assessed as accumulation at subG1 phase at […] after 24 hrs by flow cytometric analysis (reference value: 0.62%)
WI-38 [18] = test: Induction of apoptosis in human WI38 cells assessed as necrotic cells at 1 uM after 48 hrs by annexin V/PI double staining (reference value: 0.99%)
WI-38 [19] = test: Induction of apoptosis in human WI38 cells assessed as necrotic cells at […] after 48 hrs by annexin V/PI double staining (reference value: 0.99%)
A2780 [20] = test: Induction of apoptosis in human A2780 cells assessed as viable cells at 0.06 uM after 48 hrs by annexin V/PI double staining (reference value: 82.12%); settings: A2780, 48 h, read-out: Activity
A2780 [21] = test: Induction of apoptosis in human A2780 cells assessed as late-stage apoptotic cells at 0.06 uM after 48 hrs by annexin V/PI double staining (reference value: 10.20%)
A2780 [22] = test: Cell cycle arrest in human A2780 cells assessed as accumulation at S phase at […] after 24 hrs by flow cytometric analysis (reference value: 22.72%)
HeLa = test: Antiproliferative activity against human HeLa cells assessed as cell growth inhibition after 72 hrs by MTT assay
A2780 [23] = test: Cell cycle arrest in human A2780 cells assessed as accumulation at G2/M phase at 1 uM after 24 hrs by flow cytometric analysis (reference value: 21.81%)
WI-38 [24] = test: Cell cycle arrest in human WI38 cells assessed as accumulation at S phase at […] after 24 hrs by flow cytometric analysis (reference value: 16.25%)
A2780 [25] = test: Induction of apoptosis in human A2780 cells assessed as late-stage apoptotic cells at […] after 48 hrs by annexin V/PI double staining (reference value: 10.20%)
WI-38 [26] = test: Cell cycle arrest in human WI38 cells assessed as accumulation at S phase at 1 uM after 24 hrs by flow cytometric analysis (reference value: 16.25%)
A2780 [27] = test: Induction of apoptosis in human A2780 cells assessed as necrotic cells at 0.06 uM after 48 hrs by annexin V/PI double staining (reference value: 0.53%)
WI-38 [28] = test: Induction of apoptosis in human WI38 cells assessed as early-stage apoptotic cells at 1 uM after 48 hrs by annexin V/PI double staining (reference value: 2.16%)
A2780 [29] = test: Induction of apoptosis in human A2780 cells assessed as necrotic cells at 1 uM after 48 hrs by annexin V/PI double staining (reference value: 0.53%)
A2780 [30] = test: Cell cycle arrest in human A2780 cells assessed as accumulation at G2/M phase at 0.06 uM after 24 hrs by flow cytometric analysis (reference value: 21.81%)
WI-38 [31] = test: Induction of apoptosis in human WI38 cells assessed as late-stage apoptotic cells at […] after 48 hrs by annexin V/PI double staining (reference value: 16.26%)
A2780 [32] = test: Induction of apoptosis in human A2780 cells assessed as viable cells at […] after 48 hrs by annexin V/PI double staining (reference value: 82.12%); settings: A2780, 48 h, read-out: Activity
A2780 [33] = test: Cell cycle arrest in human A2780 cells assessed as accumulation at G1 phase at […] after 24 hrs by flow cytometric analysis (reference value: 54.89%)
WI-38 [34] = test: Induction of apoptosis in human WI38 cells assessed as necrotic cells at 0.06 uM after 48 hrs by annexin V/PI double staining (reference value: 0.99%)
[35] = Antiproliferative activity against human PANC1 cells assessed as cell growth inhibition after 72 hrs by MTT assay; settings: PANC-1, 72 h

SMILES: COc1cc(OC)c(/C=C/S(=O)(=O)Cc2ccc(OC)c(N)n2)c(OC)c1
Activity (A2780 [1]): 17.39% | Activity (WI-38 [2]): 22.85% | Activity (WI-38 [3]): 60.09% | GI50 (MCF7 [4]): 6 nM | GI50 (HCT-116): 8 nM | GI50 (LNCaP): 3 nM | Activity (A2780 [5]): 12.87% | GI50 (A2780 [6]): 7 nM | GI50 (DU-145): 6 nM | Activity (WI-38 [7]): 1.37% | viability at 1 µM (A2780 [8]): 22.2% | Activity (A2780 [9]): 46.99% | Activity (WI-38 [10]): 13.04% | Activity (A2780 [11]): 24.49% | Activity (A2780 [12]): 55.45% | Activity (A2780 [13]): 38% | viability at […] (WI-38 [14]): 84.4% | GI50 (MCF7 [15]): 6 nM | Activity (WI-38 [16]): 53.55% | Activity (A2780 [17]): 12.42% | Activity (WI-38 [18]): 1.83% | Activity (WI-38 [19]): 5.41% | viability at 0.06 µM (A2780 [20]): 33.3% | Activity (A2780 [21]): 25.69% | Activity (A2780 [22]): 22.54% | GI50 (HeLa): < 1 nM | Activity (A2780 [23]): 59.78% | Activity (WI-38 [24]): 9.5% | Activity (A2780 [25]): 25.61% | Activity (WI-38 [26]): 6.87% | Activity (A2780 [27]): 2.88% | Activity (WI-38 [28]): 2.86% | Activity (A2780 [29]): 1.11% | Activity (A2780 [30]): 59.72% | Activity (WI-38 [31]): 8.7% | viability at […] (A2780 [32]): 25.3% | Activity (A2780 [33]): 14.1% | Activity (WI-38 [34]): 3.39% | GI50 [35]: < 1 nM

GI50 (MCF7 [4]): 468 nM | GI50 (HCT-116): 610 nM | GI50 (LNCaP): 450 nM | GI50 (A2780 [6]): 406 nM | GI50 (DU-145): 484 nM | GI50 (MCF7 [15]): 468 nM | GI50 (HeLa): 556 nM
SMILES: COc1cc(OC)c(/C=C/S(=O)(=O)Cc2ccc(OC)c(NS(C)(=O)=O)n2)c(OC)c1
Activity (A2780 [1]): 20.54% | Activity (WI-38 [2]): 13.96% | Activity (WI-38 [3]): 58.17% | Activity (A2780 [5]): 57.73% | Activity (WI-38 [7]): 2.49% | viability at 1 µM (A2780 [8]): 35.6% | Activity (A2780 [9]): 5.55% | Activity (WI-38 [10]): 18.51% | Activity (A2780 [11]): 19.16% | Activity (A2780 [12]): 38.36% | Activity (A2780 [13]): 4.67% | viability at […] (WI-38 [14]): 84.4% | Activity (WI-38 [16]): 61.63% | Activity (A2780 [17]): 0.77% | Activity (WI-38 [18]): 1.73% | Activity (WI-38 [19]): 1.11% | viability at 0.06 µM (A2780 [20]): 87.4% | Activity (A2780 [21]): 7.36% | Activity (A2780 [22]): 22.53% | Activity (A2780 [23]): 59.38% | Activity (WI-38 [24]): 13.26% | Activity (A2780 [25]): 5.88% | Activity (WI-38 [26]): 9.93% | Activity (A2780 [27]): 0.55% | Activity (WI-38 [28]): 10.08% | Activity (A2780 [29]): 1.31% | Activity (A2780 [30]): 21.08% | Activity (WI-38 [31]): 11.58% | viability at […] (A2780 [32]): 88% | Activity (A2780 [33]): 57.35% | Activity (WI-38 [34]): 0.86% | GI50 [35]: 604 nM
